Patent US10912771B1, “Methods for the administration of certain VMAT2 inhibitors” (Neurocrine Biosciences, Inc., priority 2017, dated 2021)
“Also recorded” adds a separate entry of the source. Like-named read-outs stand apart in the source and are kept apart here. One block for each compound: values may come before it.

What was measured:
[1] = molecular target: T1, human VMAT1 transporter (Homo sapiens, UniProt P54219); test: Uptake in cells expressing VMAT1; type: cell-based; details: TBZ, VBZ and metabolites at concentrations up to 10 μM
T1 construct: expressed in transfected cells
T1 sequence (P54219 1-525): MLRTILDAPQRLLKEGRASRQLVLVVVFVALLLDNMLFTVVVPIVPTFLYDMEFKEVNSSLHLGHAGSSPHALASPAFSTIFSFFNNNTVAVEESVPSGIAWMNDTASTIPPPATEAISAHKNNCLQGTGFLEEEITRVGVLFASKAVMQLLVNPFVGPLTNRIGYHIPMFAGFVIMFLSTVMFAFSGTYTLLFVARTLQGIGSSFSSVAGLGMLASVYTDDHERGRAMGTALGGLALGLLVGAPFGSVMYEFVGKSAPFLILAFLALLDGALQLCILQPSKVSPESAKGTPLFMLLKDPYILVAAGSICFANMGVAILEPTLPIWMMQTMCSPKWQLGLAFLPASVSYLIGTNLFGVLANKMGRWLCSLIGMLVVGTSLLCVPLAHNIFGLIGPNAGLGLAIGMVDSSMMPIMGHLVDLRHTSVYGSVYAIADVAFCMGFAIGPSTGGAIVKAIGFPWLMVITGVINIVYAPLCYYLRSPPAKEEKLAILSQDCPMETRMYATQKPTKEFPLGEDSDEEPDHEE

[2] = Phase 1 open-label one-sequence crossover drug-interaction study: plasma pharmacokinetics of NBI-98854 and metabolites with and without rifampin; type: in vivo, human; details: for half-life: read-out: Mean t1/2 (converted); for AUC(0-inf) / Cmax / MRT / AUC(0-t) / Tlag / t1/2: Mean (SD); for AUC(0-t): plasma
Method: (§1) Subjects received a single dose of 80 mg valbenazine tosylate on Days 1 and 11 between 0800 and 1000 hours. In addition, subjects received 600 mg rifampin (300 mg×2 capsules) once daily on Days 5 (after collection of the 96-hour PK sample) through 14 between 0830 and 1030 hours. Subjects were required to fast overnight before receiving the study drugs (valbenazine tosylate and rifampin). Subjects were discharged from the study center on Day 15 (final study day or upon early termination) after all safety evaluations and study assessments had been completed.
Safety was assessed throughout the study.
NBI-98854 40 mg capsules were administered orally. The dose of NBI-98854 was based on ditosylate salt (dose expressed as free base). Subjects received a single dose of NBI-98854 80 mg (as two 40 mg capsules) twice during the study, on Days 1 and 11.
Rifampin 300 mg capsules were administered orally. Subjects received a single dose of rifampin 600 mg (as two 300 mg capsules) on Days 5 (after collection of the 96 hour NBI-98854 PK sample) through 14 between 0830 and 1030 hours.
The following plasma PK parameters were calculated only for NBI-98854: • Apparent systemic clearance after oral administration (CL/F) • Apparent volume of distribution during the terminal phase after oral administration (Vz/F)
The last significant figure was rounded up if the digit to the right of it was >5, and was rounded down if the digit to the right of it was […].
The last significant figure was rounded up if the digit to the right of it was ≥5, and was rounded down if the digit to the right of it was ≤4.
(§2) An analysis of variance (ANOVA) model was used to compare AUC0-∞ and Cmax for NBI-98854 administered with rifampin (“test”) versus AUC0-∞ and Cmax for NBI-98854 alone (“reference”). The PK parameters for metabolites of NBI-98854 and rifampin were also evaluated. Safety data were summarized using descriptive statistics.

[3] = molecular target: T2, VMAT2 (Homo sapiens, UniProt Q05940); test: Inhibition of [3H]-DHTBZ binding to human platelets
T2 construct: from tissue; host or cells: human platelets (homogenates)
T2 sequence (Q05940 whole entry): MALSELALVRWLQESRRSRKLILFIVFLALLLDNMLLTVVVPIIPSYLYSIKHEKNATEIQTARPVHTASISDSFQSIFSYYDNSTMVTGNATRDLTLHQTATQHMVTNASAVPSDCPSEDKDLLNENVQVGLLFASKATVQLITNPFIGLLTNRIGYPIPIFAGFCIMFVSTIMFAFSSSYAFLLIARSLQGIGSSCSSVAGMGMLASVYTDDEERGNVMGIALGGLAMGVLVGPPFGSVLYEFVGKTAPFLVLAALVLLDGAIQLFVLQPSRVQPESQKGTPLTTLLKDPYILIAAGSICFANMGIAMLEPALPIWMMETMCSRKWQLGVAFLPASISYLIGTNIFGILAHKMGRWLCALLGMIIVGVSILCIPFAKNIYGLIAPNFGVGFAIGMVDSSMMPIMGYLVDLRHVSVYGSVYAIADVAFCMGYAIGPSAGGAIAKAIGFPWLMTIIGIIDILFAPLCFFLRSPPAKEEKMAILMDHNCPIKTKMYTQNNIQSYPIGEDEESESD

[4] = test system: more than 80 targets (GPCRs, cell-surface monoamine transporters, ion channels including HERG); test: Cerep multi-target activity screen; details: receptors, monoamine transporters, and ion channels
[5] = Phase 1 drug-interaction study: safety, treatment-emergent adverse events; type: in vivo, human; details: Safety Analysis Set, healthy subjects, by treatment period
Method: as §1, §2

[6] = molecular target: Serotonin 5-HT7 (Homo sapiens, UniProt P34969); test: Cerep screen, Serotonin 5-HT7; details: 1 or 10 μM final concentration; n=2
Sequence of Serotonin 5-HT7 (P34969 whole entry): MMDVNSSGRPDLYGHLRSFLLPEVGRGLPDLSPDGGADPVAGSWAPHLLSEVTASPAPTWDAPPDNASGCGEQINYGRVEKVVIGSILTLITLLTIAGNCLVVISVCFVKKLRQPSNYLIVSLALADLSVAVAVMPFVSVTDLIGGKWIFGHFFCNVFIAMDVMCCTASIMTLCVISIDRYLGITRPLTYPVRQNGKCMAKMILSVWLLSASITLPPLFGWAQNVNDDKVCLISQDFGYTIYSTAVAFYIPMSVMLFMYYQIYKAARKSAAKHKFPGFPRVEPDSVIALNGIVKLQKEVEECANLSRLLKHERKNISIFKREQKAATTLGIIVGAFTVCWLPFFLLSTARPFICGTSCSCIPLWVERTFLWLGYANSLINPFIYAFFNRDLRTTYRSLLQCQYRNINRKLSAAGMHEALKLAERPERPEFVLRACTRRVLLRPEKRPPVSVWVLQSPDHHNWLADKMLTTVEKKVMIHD

[7] = molecular target: T3, Serotonin 5-HT1A (Homo sapiens, UniProt P08908); test: Cerep screen, Serotonin 5-HT1A; details: 1 or 10 μM final concentration; n=2
T3 sequence (P08908 1-422): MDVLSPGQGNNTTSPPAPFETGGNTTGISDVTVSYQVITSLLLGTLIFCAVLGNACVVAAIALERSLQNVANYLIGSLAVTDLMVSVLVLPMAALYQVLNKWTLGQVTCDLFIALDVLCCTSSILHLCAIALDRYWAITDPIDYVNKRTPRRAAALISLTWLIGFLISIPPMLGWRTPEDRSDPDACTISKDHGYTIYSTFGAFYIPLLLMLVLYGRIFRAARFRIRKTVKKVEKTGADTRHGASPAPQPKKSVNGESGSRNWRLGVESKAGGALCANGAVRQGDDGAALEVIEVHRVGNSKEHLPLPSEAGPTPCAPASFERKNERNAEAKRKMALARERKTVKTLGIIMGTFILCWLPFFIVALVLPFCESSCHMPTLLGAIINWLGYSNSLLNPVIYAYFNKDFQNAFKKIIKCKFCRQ

[8] = Ptosis, in vivo surrogate measure of pharmacological effect
[9] = both sexes, human, oral, plasma metabolite NBI-136110, NBI-98854 80 mg + rifampin 600 mg, N = 11
[10] = both sexes, human, oral, plasma metabolite NBI-136110, NBI-98854 80 mg alone, N = 11
[11] = plasma metabolite NBI-136110, NBI-98854 80 mg + rifampin 600 mg, N = 11
[12] = plasma metabolite NBI-136110, NBI-98854 80 mg alone, N = 11

half-life ([2]; both sexes, human, oral, 80 mg, plasma analyte, NBI-98854 alone): 27 h | Tmax ([2]; both sexes, human, oral, 80 mg, plasma analyte, NBI-98854 alone, read-out: Median tmax): 3 h | half-life ([2]; both sexes, human, oral, plasma analyte, NBI-98854 administered with rifampin): 12 h | Tmax ([2]; both sexes, human, oral, plasma analyte, NBI-98854 in combination with rifampin vs NBI-98854 alone, read-out: Median tmax shorter): 1.5 h | AUC(0-inf) [2, 9]: 0.663 µg·h/mL | Cmax [2, 9]: 0.0815 µg/mL | MRT [2, 9]: 12 h | AUC(0-inf) [2, 10]: 2.08 µg·h/mL | Cmax [2, 10]: 0.0598 µg/mL | MRT [2, 10]: 39 h | AUC(0-t) ([2]; both sexes, human, oral, 80 mg, plasma metabolite NBI-136110, NBI-98854 80 mg alone, N = 11, read-out: AUC0-24): 0.963 µg·h/mL | AUC(0-t) ([2]; both sexes, human, oral, 80 mg, plasma metabolite NBI-136110, NBI-98854 80 mg alone, N = 11, read-out: AUC0-tlast): 1.89 µg·h/mL | AUC(0-t) ([2]; both sexes, human, oral, plasma metabolite NBI-136110, NBI-98854 80 mg + rifampin 600 mg, N = 11, read-out: AUC0-24): 0.554 µg·h/mL | AUC(0-t) ([2]; both sexes, human, oral, plasma metabolite NBI-136110, NBI-98854 80 mg + rifampin 600 mg, N = 11, read-out: AUC0-tlast): 0.658 µg·h/mL | Mean t1/2 shorter ([2]; plasma analyte, NBI-98854 in combination with rifampin vs NBI-98854 alone): approximately 40% | decrease in AUC0-∞ ([2]; plasma analyte, NBI-98854 plus rifampin compared with NBI-98854 alone): approximately 70% | Tlag [2, 11]: 0.16 (0.13) hr | t1/2 [2, 11]: 12 (3.0) hr | Tmax ([2]; plasma metabolite NBI-136110, NBI-98854 80 mg + rifampin 600 mg, N = 11, Median (min, max)): 1.5 (0.75, 2.1) hr | Tlag [2, 12]: 0.23 (0.14) hr | t1/2 [2, 12]: 27 (6.7) hr | Tmax ([2]; plasma metabolite NBI-136110, NBI-98854 80 mg alone, N = 11, Median (min, max)): 3.0 (2.0, 8.0) hr | Affinity Relative to R,R,R-DHTBZ [3]: 67 | pKi mean (SEM) ([3]; n=4): 6.65 (0.04)
Compound: COc1cc2c(cc1OC)[C@H]1C[C@@H](OC(=O)[C@@H](N)C(C)(C)O)[C@H](CC(C)C)CN1CC2 [NBI-136110]
inhibition of uptake through VMAT1 [1]: no significant inhibitory activity; also recorded: no significant effect | affinity for more than 80 binding sites [4]: little to no affinity

Compound: CO[C@H]1/C=C/O[C@@]2(C)Oc3c(C)c(O)c4c(O)c(c(/C=N/N5CCN(C)CC5)c(O)c4c3C2=O)NC(=O)/C(C)=C\C=C\[C@H](C)[C@H](O)[C@@H](C)[C@@H](O)[C@@H](C)[C@H](OC(C)=O)[C@@H]1C [Rifampin, reference compound]
Subjects who experienced a TEAE: Overall [5]: 12 (100) n (%) | TEAE: Abdominal pain [5]: 0 n (%) | TEAE: Abdominal pain upper [5]: 1 (8.3) n (%) | TEAE: Arthropod bite [5]: 0 n (%) | TEAE: Chromaturia [5]: 12 (100) n (%) | TEAE: Headache [5]: 0 n (%) | TEAE: Hypoaesthesia [5]: 0 n (%) | TEAE: Non-cardiac chest pain [5]: 1 (8.3) n (%) | TEAE: Paraesthesia [5]: 1 (8.3) n (%) | TEAE: Vessel puncture site haemorrhage [5]: 0 n (%) | TEAE: Chromaturia ([5]; listed as rifampin): 12 n (%)

Compound: COc1cc2c(cc1OC)[C@H]1C[C@H](O)[C@H](CC(C)C)CN1CC2 [S,R,R-DHTBZ, reference compound]
percent of control specific binding, Serotonin 5-HT7 [6]: 80% | percent of control specific binding, Serotonin 5-HT1A [7]: 69%

Compound: COc1cc2c(cc1OC)C1CC(=O)C(CC(C)C)CN1CC2 (stereo not drawn) [TBZ, reference compound]
inhibition of uptake through VMAT1 [1]: no significant inhibitory activity; also recorded: no significant effect | induction of ptosis [8]: induced ptosis in an equivalent manner

inhibition of uptake through VMAT1 [1]: substantially inhibited uptake
Compound: COC(=O)[C@H]1[C@H]2C[C@@H]3c4[nH]c5cc(OC)ccc5c4CCN3C[C@H]2C[C@@H](OC(=O)c2cc(OC)c(OC)c(OC)c2)[C@@H]1OC [reserpine, reference compound]
